Earlier results, collected in patent US12605340B2, “Extended release composition of 2-(2-Aminothiazol-4-yl)-N-[4-(2{[(2R)-2-hydroxy-2-phenylethyl] amino} ethyl) phenyl] acetamide” (Zim Laboratories Limited, priority 2020, dated 2026).
Read-outs that look alike come from different tables or passages of the source.

Solubility (in dimethyl sulfoxide): soluble | Solubility (in methanol): soluble | Solubility (in water): practically insoluble
Structure (SMILES): Nc1nc(CC(=O)Nc2ccc(CCNC[C@H](O)c3ccccc3)cc2)cs1 [Mirabegron, 2(2-aminothiazol-4-yl)-N-[4-(2-{[(2R)-2-hydroxy2phenylethyl]amino}ethyl)phenyl] acetamide]
